According to patent publication US20130123367A1, “VINYLOGOUS CHALCONE DERIVATIVES AND THEIR MEDICAL USE” (MEDIZINISCHE UNIVERSITAT WIEN, priority 2010, published 2013):
Read-outs that look alike come from different tables or passages of the source.

Key:
Assay type in all cases: cell-based
[1] = system: colon cancer cell line SW480; test: Cell proliferation assay using crystal violet, SW480; conditions: Homo sapiens, n = 3, 24 h incubation
Description: (§1) For quantification, cells are treated with crystal violet, a dye that stains proteins. After washing away of excess dye, the remaining crystal violet is dissolved in a sodium citrate solution. The solution is analyzed photometrically at 590 nm. The optical density of this solution depends on the concentration of crystal violet and therefore on the amount of cells. […] To reduce effects of evaporation, only the inner 60 wells of 96-well plates (coated with 0.1% gelatine solution for studies with HUVEC) were used for experiments.
(§2) Cells were seeded at a density of 5 000 cells per well in 100 μl growth medium (HUVEC) or 20 000 (HCT116), 15 000 (SW480 and 518A2) or 10 000 (HT29) cells per well in 200 μl growth medium in 55 wells per plate. 5 wells were filled with medium only. Additionally, a 96-well plate with cells in 12 wells and medium in 6 wells was prepared as T0-plate. The next day, additional 98 μl of growth medium were added in every well (only HUVEC).
(§3) Cells were treated with 2 μl of the working solution 24 h after seeding. Final compound concentrations in the well were 10 μM for the first round of screening. The final DMSO concentration was 0.5%. […] After finishing the addition of compounds, the T0-plate was stained with crystal violet for giving the cell density at time point zero. Before staining, the growth medium was poured away. Wells were filled with 50 μl crystal violet solution for 10 min. Then the staining solution was washed away with water. Since crystal violet is environmentally hazardous the waste was collected and disposed in an appropriate manner. After air drying of the plates the crystal violet on the cells was dissolved in 100 μl of sodium citrate solution, and the absorption was measured with a plate reader at 590 nm.
(§4) Mean values were corrected with the absorption of stained medium and the corrected absorption of T0 cells. Cell growth was calculated relative to DMSO control for data comparison. IC50 values (50% inhibition of cell growth) were determined with GraphPad Prism® (Version 4.03) using nonlinear regression (sigmoidal dose-response with variable slope).
(§5) Compounds showing an inhibition of proliferation of more than 50% at a concentration of 10 μM were defined as active, and their IC50-values were determined.

[2] = system: melanoma cell line 518A2; test: Cell proliferation assay using crystal violet, 518A2; conditions: for IC50: Homo sapiens, 518A2, crystal violet assay, n = 3, 48 h incubation
Description: as §1, §2, §3, §4, §5

[3] = system: SU-DHL-6 or SU-DHL-9 NHL cells; test: Annexin V-FITC / propidium iodide staining, early apoptosis in NHL cells; conditions: 48 h incubation; FIG. 2
Description: FIG. 2. Changes in early apoptosis in SU-DHL-6 or SU-DHL-9 NHL cells after 48 h incubation with compounds 1 and 22, respectively. Effect of compound 1 in a) SU-DHL-6 and b) SU-DHL-9, and effect of compound 22 in c) SU-DHL-6 and d) SU-DHL-9. Apoptosis was detected using propidium iodide/Annexin V FACS staining (Bender MedSystems). Viability was detected using the EZ4U viability kit (Biomedica).
Annexin V binds to phosphatidylserine which is exposed at the cell surface during execution of apoptosis. […] The final DMSO concentration was 0.5%. All treatments and controls were performed twice. […] Then, growth medium was removed by centrifugation, the supernatant discarded and 200 μl of an Annexin V solution were added. After 10 minutes in the dark, cells were washed once with Annexin buffer and the solution removed by centrifugation. The supernatant was discarded again and cells were suspended in 200 μl of a propidium iodide solution. Cells were measured by flow cytometry with a total of 10 000 events. Data were analyzed with CellQuest Pro™.

[4] = system: SU-DHL-6 (Non Hodgkin's lymphoma); test: Cell viability assay using EZ4U viability kit, SU-DHL-6; conditions: Homo sapiens
Description: (§6) For quantification, cells are treated with a tetrazolium salt as indicator of cell viability. […] Then, the solution is analyzed photometrically at 450 nm with 620 nm as reference.
(§7) The final DMSO concentration was 0.5%. […] Then, wells were filled with 20 μl substrate solution for 2 to 4 hours and analyzed.
(§8) Cell viability was calculated relative to DMSO control for data comparison. IC50 values (50% inhibition of cell growth) were determined with GraphPad Prism® (Version 4.03) using nonlinear regression (sigmoidal dose-response with variable slope).

[5] = system: CLL cell lines MEC-1 and MEC-2; test: Annexin V-FITC / propidium iodide staining, apoptosis in CLL cell lines; conditions: MEC-1 and MEC-2; 24 and 48 hours incubation; FIG. 4
Description: Apoptosis was detected using propidium iodide/Annexin V FACS staining (Bender MedSystems).
Annexin V binds to phosphatidylserine which is exposed at the cell surface during execution of apoptosis. First, cells were seeded out at a density of 1.5 to 2.5 million cells per well in 12 well plates and then growth medium was added to each well to get a final volume of 2.5 ml. Compounds to be tested were diluted with medium from a 10 mM stock solution in DMSO to get different concentrations and cells were treated with 25 μl of these solutions. The final DMSO concentration was 0.5%. All treatments and controls were performed twice. Cells were incubated at 37° C. and 5% CO2 for 24 h and 48 h. Then, growth medium was removed by centrifugation, the supernatant discarded and 200 μl of an Annexin V solution were added. After 10 minutes in the dark, cells were washed once with Annexin buffer and the solution removed by centrifugation. The supernatant was discarded again and cells were suspended in 200 μl of a propidium iodide solution. Cells were measured by flow cytometry with a total of 10 000 events. Data were analyzed with CellQuest Pro™.
Compounds 1 and 22 were also tested on the CLL cell lines MEC-1 and MEC-2 in comparison with fludarabine and cyclophosphamide, two compounds used in the treatment of hematological malignancies (MEC-1 is a fludarabine-resistant cell line).

[6] = system: K562 (Chronic myeloid leukemia); test: Cell viability assay using EZ4U viability kit, K562; conditions: Homo sapiens
Description: as §6, §7, §8

[7] = system: chronic lymphocytic leukemia (CLL) cells in co-culture with stromal cells; test: Co-culture model of primary CLL cells and stromal cells (CellTiter-Blue viability); conditions: 48 h incubation; mean of 5 patients; FIG. 7
Text: FIG. 7: […] Data points represent the arithmetic mean of 5 patients calculated in relation to the control. […] The final DMSO concentration was 0.5%. […] In many tumors, the microenvironment plays a major role for the survival of malignant cells. In chronic lymphocytic leukemia (CLL), it has been shown that interaction with the microenvironment, among other things, promotes the survival of tumor cells during chemotherapy. Thus, co-culture models have been developed which better reflect the in vivo situation. The inventors used such a pre-clinical model for drug incubation to study the effect of stromal cells on viability.

[8] = system: HL60 (Acute promyelocytic leukemia); test: Cell viability assay using EZ4U viability kit, HL60; conditions: Homo sapiens
Description: as §6, §7, §8

[9] = 24 h incubation, read-out: IC50 (nM) SU-DHL-6 24 h
[10] = 48 h incubation, read-out: IC50 (nM) SU-DHL-6 48 h
[11] = 24 h incubation, read-out: IC50 (nM) K562 24 h (converted)
[12] = 48 h incubation, read-out: IC50 (nM) K562 48 h (converted)
[13] = HL-60, 24 h incubation, read-out: IC50 (nM) HL60 24 h
[14] = HL-60, 48 h incubation, read-out: IC50 (nM) HL60 48 h

| Compound | IC50 [1] | IC50 [2] | early apoptosis (propidium iodide/Annexin V FACS staining) [3] | IC50 [4, 9] | IC50 [4, 10] | apoptosis induction compared with fludarabine and cyclophosphamide [5] | IC50 [6, 11] | IC50 [6, 12] | viability of CLL cells in co-culture with stromal cells [7] | IC50 [8, 13] | IC50 [8, 14] | potency relative to cisplatin ([2]; melanoma cell line 518A2, ratio of IC50 values) |
| --- | --- | --- | --- | --- | --- | --- | --- | --- | --- | --- | --- | --- |
| COc1ccccc1/C=C/C=C/C(=O)c1cc(OC)c(OC)c(OC)c1 [Compound 1, 5-(2-Methoxyphenyl)-1-(3′,4′,5′-trimethoxyphenyl)-2,4-pentadiene-1-one] | 520 nM | 150 nM | induce early apoptosis | 180 nM | 20 nM | induced apoptosis in a lower concentration range than fludarabine and cyclophosphamide | 20900 nM | 50 nM | higher cytotoxicity than the control drugs fludarabine and cyclophosphamide | 490 nM | 170 nM |  |
| CCOc1ccccc1C(=O)/C=C/c1ccc2ccccc2c1 [Compound 22, 3-(2-Naphthyl)-1-(2′-ethoxyphenyl)-2-propene-1-one] | 30 nM | 40 nM | induce early apoptosis | 10 nM | 40 nM | induced apoptosis in a lower concentration range than fludarabine and cyclophosphamide | 17700 nM | 13700 nM | higher cytotoxicity than the control drugs fludarabine and cyclophosphamide | 10 nM | 20 nM | about 250 times |
